The target of one data set is T1, Cocaine esterase (Homo sapiens, UniProt O00748).
T1 sequence (O00748 whole entry): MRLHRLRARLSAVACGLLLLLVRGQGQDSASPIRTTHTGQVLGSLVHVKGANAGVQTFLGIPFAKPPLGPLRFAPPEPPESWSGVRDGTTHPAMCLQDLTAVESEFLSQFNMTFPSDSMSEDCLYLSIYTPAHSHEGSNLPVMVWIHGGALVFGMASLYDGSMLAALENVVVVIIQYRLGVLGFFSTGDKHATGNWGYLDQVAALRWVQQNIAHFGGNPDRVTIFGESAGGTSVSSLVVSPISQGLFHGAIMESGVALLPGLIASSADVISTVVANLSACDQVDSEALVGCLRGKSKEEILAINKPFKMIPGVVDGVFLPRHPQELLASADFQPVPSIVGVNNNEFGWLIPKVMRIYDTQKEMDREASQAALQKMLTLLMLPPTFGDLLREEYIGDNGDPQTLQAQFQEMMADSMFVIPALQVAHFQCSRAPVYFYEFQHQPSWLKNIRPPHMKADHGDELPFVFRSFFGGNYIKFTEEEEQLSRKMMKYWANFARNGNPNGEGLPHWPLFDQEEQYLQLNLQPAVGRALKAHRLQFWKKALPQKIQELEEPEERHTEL
As to the kind of experiment: Inhibition of CES2 in human liver microsomes assessed as reduction in substrate hydrolysis using fluorescein diacetate as substrate preincubated for 3 mins followed by substrate addition and measured after 20 mins by fluorescence analysis.

The test system of another data set is Caco-2. As to the kind of experiment: Cytotoxicity against human Caco-2 cells assessed as reduction in cell viability at <40 uM after 48 hrs by CCK8 assay. The class given is cell-based. The conditions noted are these: caco-2, 48 h. In general terms: Tetrazolium assays rely on reduction of a dye to a coloured formazan, in cell work by metabolically active cells.

The test system of data set [1] is 3T3-L1. In words: Inhibition of adipogenesis in mouse 3T3-L1 cells assessed as reduction in lipid droplet formation at 10 uM incubated with compound for 72 hrs in presence of adipogenesis-inducing agent followed by culturing in normal medium in presence of compound for 48 hrs by Oil red O staining based analysis. It is filed as functional, cell-based. The note with it: time 120.0 hrs.

Data set [2] deals with 3T3-L1. As to the kind of experiment: Inhibition of adipogenesis in mouse 3T3-L1 cells assessed as reduction in lipid droplet formation at 40 uM incubated with compound for 72 hrs in presence of adipogenesis-inducing agent followed by culturing in normal medium in presence of compound for 48 hrs by Oil red O staining based analysis. The class given is functional, cell-based. The conditions noted are these: time 120.0 hrs.

In another data set the test system is HepG2. As to the kind of experiment: Cytotoxicity against human HepG2 cells assessed as reduction in cell viability at <40 uM after 48 hrs by CCK8 assay. It is filed as cell-based. The conditions noted are these: hepg2, 48 h.
The subject of data set [3] is 3T3-L1. In words: Cytotoxicity against mouse 3T3-L1 cells assessed as reduction in cell viability at <40 uM after 48 hrs by CCK8 assay. It is filed as cell-based. The note with it: 3t3-l1, 48 h.

The source made the active and inactive calls. The rule behind the calls is not given here.

The term IC50 denotes the concentration that inhibits the measured activity by half. Consider `CCCCCCCC/C=C\CCCCCCCC(=O)OCC(O)COP(=O)(O)O` (stereo unspecified), for which, on Cocaine esterase, the IC50 stood at 1.57 µM.
As to `O=C1C(Cc2ccccc2[N+](=O)[O-])C(c2ccccc2)=NN1c1ccccc1` (stereo unspecified), the IC50 at Cocaine esterase turned out to be 10.9 µM.
In the case of `Cc1ccc(CC2C(=O)N(C3CCCCC3)N=C2c2ccc(C)cc2)cc1` (stereo unspecified), the Activity entry in the data set on Caco-2, with HepG2 and in the data set with 3T3-L1 [3] was “Non-Toxic” throughout. Also, the inhibition result with 3T3-L1 [1] and in the data set on 3T3-L1 [2] was “Active” each time.
For the compound `CCC1C(=O)N(c2ccccc2)N=C1c1ccccc1` (stereo unspecified), on Cocaine esterase, the IC50 was 9.04 µM.
With `C=CCC1C(=O)N(c2ccccc2)N=C1c1ccccc1` (stereo unspecified), the IC50 at Cocaine esterase is 7.76 µM.
Regarding `O=C1C(Cc2ccccc2)C(c2ccccc2)=NN1C1CCCCC1` (stereo unspecified), at Cocaine esterase, the half-maximal inhibitory concentration (IC50) amounted to 9.12 µM.
Still for that read-out and setting: under `Cc1cccc(CC2C(=O)N(c3ccccc3)N=C2c2ccccc2)c1` (stereo unspecified) stands 7.11 µM; under `O=C1C(Cc2ccccc2)C(c2ccc(Br)cc2)=NN1c1ccccc1` (stereo unspecified), 6.19 µM; under `Cc1ccc(C2=NN(c3ccccc3)C(=O)C2Cc2ccccc2)cc1` (stereo unspecified), 3.82 µM.
With `O=C1C(Cc2ccc(Br)cc2)C(c2ccccc2)=NN1c1ccccc1` (stereo unspecified), on Cocaine esterase, the IC50 came to 8.24 µM.
Consider `COc1ccc(CC2C(=O)N(c3ccccc3)N=C2c2ccccc2)cc1` (stereo unspecified), for which the IC50 at Cocaine esterase turned out to be 6.68 µM.
Same read-out and setting: as for `Cc1ccc(CC2C(=O)N(c3ccccc3)N=C2c2ccccc2)cc1` (stereo unspecified), the figure is 5.16 µM.

These data come from ChEMBL document CHEMBL4819130 (Bioorg Med Chem, 2021).
